Test systems include 786-0 renal; COLO 205 colon; NCI-H460 lung; SW-620 colon; SNB-75 CNS; OVCAR-8 ovarian; K-562 leukemia; EKVX NSCLC; OVCAR-5 ovarian.
Holding throughout (experiment): NCI tumour cell line growth inhibition, 48 h

Results on twelve molecules are retold here after PubChem BioAssay (NCI).

The structures appear in SMILES notation.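 Results reflect a 48-hour exposure of cells in 96-well plates to compound at five concentrations. GI50 = concentration required for 50% inhibition of growth. The concentration for full growth arrest is given as TGI.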

For the molecule `Cc1nn2c(nc1=O)sc1ccc3ccccc3c12`, the TGI in the experiment with 786-0 renal, in the experiment on COLO 205 colon, in the experiment with NCI-H460 lung, in the experiment with SW-620 colon, in the experiment with SNB-75 CNS and with OVCAR-8 ovarian was greater than 100 µM throughout. The TGI with K-562 leukemia, with EKVX NSCLC and in the experiment on OVCAR-5 ovarian was greater than 100 µM each time.
For `C(=N\Nc1ccccc1)/c1nc2ccccc2nc1/C=N/Nc1ccccc1`, the TGI with 786-0 renal was determined as 29.5 µM; in the experiment on NCI-H460 lung, 29 µM; with SW-620 colon it was 30.7 µM; in the experiment with SNB-75 CNS, 31.4 µM; in the experiment on OVCAR-8 ovarian, 17 µM; with K-562 leukemia, 20.5 µM. Also, the TGI with EKVX NSCLC is greater than 78.6 µM; with OVCAR-5 ovarian, 84.9 µM.
As for `N#CCCCCCOCCOCCOCCOCCOCCCCCC#N`, the TGI in the experiment on 786-0 renal, in the experiment with COLO 205 colon, in the experiment on NCI-H460 lung, with SW-620 colon, with SNB-75 CNS and with OVCAR-8 ovarian was greater than 100 µM in each case. Besides, the TGI with K-562 leukemia, in the experiment on EKVX NSCLC and with OVCAR-5 ovarian was greater than 100 µM each time.
Regarding `O=C(NCc1cccnc1)C1COc2cc(-c3cc(=O)c4ccccc4o3)ccc2O1` (centres undefined), the TGI in the experiment on 786-0 renal was greater than 81.7 µM; in the experiment on COLO 205 colon, greater than 100 µM; in the experiment with NCI-H460 lung it was greater than 100 µM; in the experiment on SW-620 colon, greater than 100 µM; in the experiment with SNB-75 CNS, 28.8 µM; in the experiment on OVCAR-8 ovarian it was greater than 55 µM. Also, the TGI with K-562 leukemia, in the experiment with EKVX NSCLC and in the experiment on OVCAR-5 ovarian was greater than 100 µM in each case.
Turning to `COc1ccc(NC(=O)CC/C(CC(=O)c2ccco2)=N/NC(N)=S)cc1`, the TGI in the experiment on 786-0 renal, in the experiment with COLO 205 colon, in the experiment on NCI-H460 lung, in the experiment with SW-620 colon, with OVCAR-8 ovarian and in the experiment on K-562 leukemia was greater than 100 µM in each case. Moreover, the TGI in the experiment on EKVX NSCLC and in the experiment with OVCAR-5 ovarian was greater than 100 µM in each case.
Take `CC1(Br)CC2OC3(Br)C=CC(C)(O)C2(CC1=O)C3(C)C` (centres undefined): the TGI in the experiment on 786-0 renal, with COLO 205 colon, with NCI-H460 lung, with SW-620 colon, in the experiment on SNB-75 CNS and with OVCAR-8 ovarian was greater than 100 µM each time. Moreover, the TGI is greater than 29.8 µM in the experiment with K-562 leukemia, greater than 100 µM with EKVX NSCLC and greater than 100 µM in the experiment with OVCAR-5 ovarian.
In the case of `CC[C@@]1(O)C(=O)OCc2c1cc1n(c2=O)Cc2cc3cccc([N+](=O)[O-])c3nc2-1`, the GI50 is 0.3 µM with 786-0 renal; 4.63 µM in the experiment with COLO 205 colon; 0.0671 µM with NCI-H460 lung; 0.879 µM in the experiment on SNB-75 CNS; 0.857 µM in the experiment on OVCAR-8 ovarian; 3.55 µM with K-562 leukemia. The GI50 in the experiment on EKVX NSCLC was 96.9 µM; in the experiment with OVCAR-5 ovarian, 1.55 µM. Moreover, the TGI in the experiment with 786-0 renal is 1.29 µM; in the experiment with COLO 205 colon it was 25.9 µM; in the experiment on NCI-H460 lung it was 1.51 µM; in the experiment with SNB-75 CNS it was 7.85 µM; with OVCAR-8 ovarian, greater than 100 µM; in the experiment on K-562 leukemia, greater than 100 µM. Also, the TGI with EKVX NSCLC is greater than 100 µM; in the experiment on OVCAR-5 ovarian it was 28.4 µM.
Consider `CCOC(=O)NC/C=C/COC1CCCCO1` (centres undefined), for which the TGI in the experiment on 786-0 renal, in the experiment on COLO 205 colon, in the experiment on NCI-H460 lung, in the experiment with SW-620 colon, in the experiment with SNB-75 CNS and with OVCAR-8 ovarian was greater than 100 µM each time. In the experiment with K-562 leukemia, the TGI was greater than 100 µM.
As for `Cc1cc(C)n(-c2ccnc3cc(Cl)ccc23)n1`, the TGI in the experiment on 786-0 renal, in the experiment with COLO 205 colon, in the experiment on NCI-H460 lung, in the experiment on SW-620 colon, with SNB-75 CNS and with OVCAR-8 ovarian was greater than 100 µM in each case. Also, the TGI with K-562 leukemia, with EKVX NSCLC and in the experiment with OVCAR-5 ovarian was greater than 100 µM each time.
Turning to `CCCCNC(=O)C1C(=O)N(CCCC)C(=O)/C1=N\N` (centres undefined), the TGI in the experiment on 786-0 renal, in the experiment with COLO 205 colon, in the experiment on NCI-H460 lung, with SW-620 colon, in the experiment on SNB-75 CNS and with OVCAR-8 ovarian was greater than 100 µM in each case. Also, the TGI in the experiment with K-562 leukemia, with EKVX NSCLC and in the experiment with OVCAR-5 ovarian was greater than 100 µM each time.
For the molecule `CCOC(=O)C(N=C(c1ccccc1)c1ccccc1)N(C(=O)OC(C)(C)C)C(=O)OC(C)(C)C` (centres undefined), the TGI in the experiment with 786-0 renal, in the experiment with COLO 205 colon, with SW-620 colon, in the experiment on SNB-75 CNS, in the experiment with OVCAR-8 ovarian and in the experiment with K-562 leukemia was greater than 100 µM in each case. The TGI in the experiment with EKVX NSCLC and in the experiment on OVCAR-5 ovarian was greater than 100 µM throughout.
Regarding `CCCNCC(=O)O[C@]1(CC)C(=O)OCc2c1cc1n(c2=O)Cc2cc3ccccc3nc2-1`, the TGI in the experiment with 786-0 renal was 0.117 µM; in the experiment with COLO 205 colon, 3.07 µM; with NCI-H460 lung, 0.154 µM; with SNB-75 CNS it was 0.537 µM; with OVCAR-8 ovarian, 8.33 µM; with K-562 leukemia, greater than 100 µM. Further, the TGI in the experiment on EKVX NSCLC was greater than 100 µM; with OVCAR-5 ovarian, 3.96 µM.
